Reference: patent publication US20240270821A1, “GIP/GLP1/GCG TRI-RECEPTOR AGONISTS AND USES THEREOF” (priority 2023, published 2024)
Where two headings read alike, the source gives them in different places. Starred links: 1 amine or outer side, 2 acyl side, 3 side chain; linkers in the order of their positions; H or OH if unused. Non-standard residues stand in square brackets, D forms with d. Residues, ends and D or L forms follow the SMILES beside them. Groups on a side chain read outwards from the residue. No end group written: not given here. *: point of attachment. C20 diacid = O=C(O)CCCCCCCCCCCCCCCCCCC(=O)*; C18 diacid = O=C(O)CCCCCCCCCCCCCCCCC(=O)*; αMePhe(2-F) = C[C@](N)(Cc1ccccc1F)C(=O)O; γGlu = O=C(O)[C@H](CCC(=O)[*:2])N[*:1]; αMe4Pal = C[C@](N)(Cc1ccncc1)C(=O)O; αMeY = C[C@](N)(Cc1ccc(O)cc1)C(=O)O; 4Pal = N[C@@H](Cc1ccncc1)C(=O)O; αMeL = CC(C)C[C@](C)(N)C(=O)O; αMeS = C[C@](N)(CO)C(=O)O; Orn = NCCC[C@H](N)C(=O)O; AEEA = NCCOCCOCC(=O)O; Aib = CC(C)(N)C(=O)O

What was measured:
Assay type in all cases: cell-based
hGIPR [1] = target: T1, hGIPR (Homo sapiens, UniProt P48546); experiment: Functional cAMP activity in the presence of 1% HSA; settings: read-out: cAMP Rel EC50, hGIPR
T1 sequence (P48546 22-466): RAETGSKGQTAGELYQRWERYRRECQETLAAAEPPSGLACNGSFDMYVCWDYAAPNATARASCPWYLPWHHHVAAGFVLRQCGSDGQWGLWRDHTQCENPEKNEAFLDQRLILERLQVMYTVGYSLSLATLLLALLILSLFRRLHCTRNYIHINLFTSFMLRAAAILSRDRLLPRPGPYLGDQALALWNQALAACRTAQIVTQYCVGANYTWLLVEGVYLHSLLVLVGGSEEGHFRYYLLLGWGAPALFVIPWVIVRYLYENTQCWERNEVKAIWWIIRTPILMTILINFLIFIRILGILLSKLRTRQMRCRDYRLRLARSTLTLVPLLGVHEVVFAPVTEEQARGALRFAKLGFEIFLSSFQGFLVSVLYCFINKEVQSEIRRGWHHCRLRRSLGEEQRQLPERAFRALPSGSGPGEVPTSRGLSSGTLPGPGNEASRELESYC

hGLP-1R [2] = target: T2, hGLP-1R (Homo sapiens, UniProt P43220); experiment: Functional cAMP activity in the presence of 1% HSA; settings: read-out: cAMP Rel EC50, hGLP-1R
human GcgR = human GcgR (Homo sapiens, UniProt P47871); experiment: Functional cAMP activity in the presence of 1% HSA; settings: read-out: cAMP Rel EC50, hGcgR
hGIPR [3] = target: T1, hGIPR; experiment: Functional cAMP activation in the presence of 0.1% casein (no HSA); settings: read-out: Relative cAMP EC50, hGIPR;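 on Relative cAMP EC50, hGIPR: intracellular cAMP rise after 30 min at 37 °C read by HTRF against a standard curve, scaled between buffer alone (0%) and top control ligand concentration (100%), four-parameter fit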;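 on Relative cAMP EC50, hGLP-1R: intracellular cAMP rise after 30 min at 37 °C read by HTRF, normalized between buffer only (0%) and maximal control ligand (100%), four-parameter variable-slope fit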;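 on Relative cAMP EC50, hGcgR: intracellular cAMP rise after 30 min at 37 °C, read by HTRF against a cAMP standard curve, scaled from buffer only (0%) to maximal control ligand response (100%)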
hGLP-1R [4] = target: T2, hGLP-1R; experiment: as above; settings: read-out: Relative cAMP EC50, hGLP-1R
hGcgR = hGcgR (Homo sapiens, UniProt P47871); experiment: as above; settings: read-out: Relative cAMP EC50, hGcgR;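 further: intracellular cAMP rise after 30 min at 37 °C, read by HTRF against a cAMP standard curve, scaled from buffer only (0%) to maximal control ligand response (100%)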
[5] = in the presence of 0.1% casein (no HSA), geometric mean
[6] = HEK-293 clonal cell line, 1% HSA, geometric mean of relative EC50
[7] = in the presence of 0.1% casein (no HSA), geometric mean of relative EC50
[8] = 0.1% casein, no HSA, geometric mean

T2 sequence (P43220 24-463): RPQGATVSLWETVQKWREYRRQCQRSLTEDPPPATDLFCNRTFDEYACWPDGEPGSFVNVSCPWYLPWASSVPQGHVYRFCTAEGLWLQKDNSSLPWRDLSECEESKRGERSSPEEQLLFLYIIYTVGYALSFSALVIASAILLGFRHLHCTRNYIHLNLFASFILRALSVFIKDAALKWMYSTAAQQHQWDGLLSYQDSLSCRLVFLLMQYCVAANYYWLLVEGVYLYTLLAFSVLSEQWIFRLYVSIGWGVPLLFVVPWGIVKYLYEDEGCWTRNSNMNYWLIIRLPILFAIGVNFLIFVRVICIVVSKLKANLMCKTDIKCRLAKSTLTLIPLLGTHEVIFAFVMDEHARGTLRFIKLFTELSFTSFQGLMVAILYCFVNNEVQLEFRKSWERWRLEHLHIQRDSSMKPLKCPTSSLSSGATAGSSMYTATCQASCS
Sequence of human GcgR (P47871 26-477): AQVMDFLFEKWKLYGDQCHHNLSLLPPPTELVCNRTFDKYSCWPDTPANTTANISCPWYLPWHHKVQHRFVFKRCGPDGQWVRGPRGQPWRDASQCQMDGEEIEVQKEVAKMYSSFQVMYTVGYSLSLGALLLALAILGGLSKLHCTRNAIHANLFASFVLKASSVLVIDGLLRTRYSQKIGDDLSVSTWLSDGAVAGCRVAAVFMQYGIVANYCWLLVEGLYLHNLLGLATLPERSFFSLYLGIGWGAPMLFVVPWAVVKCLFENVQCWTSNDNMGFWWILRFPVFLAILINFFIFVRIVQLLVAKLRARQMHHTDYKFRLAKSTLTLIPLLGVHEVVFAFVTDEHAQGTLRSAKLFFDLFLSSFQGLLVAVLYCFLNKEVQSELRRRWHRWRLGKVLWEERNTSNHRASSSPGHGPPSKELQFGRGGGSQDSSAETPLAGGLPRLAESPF
Sequence of hGcgR (P47871 26-477): as above

Molecule	EC50 (hGIPR [1])	EC50 (hGLP-1R [2])	EC50 (human GcgR)	EC50 (hGIPR [3])	EC50 (hGLP-1R [4])	EC50 (hGcgR)	EC50 (hGIPR [3]; [5])	EC50 (hGLP-1R [4]; [5])	EC50 (hGcgR; [5])	other results
CC[C@H](C)[C@H](NC(=O)[C@H](CC(C)C)NC(=O)[C@](C)(Cc1ccc(O)cc1)NC(=O)[C@@H](CCC(=O)O)NC(=O)[C@@H](NC(=O)[C@H](Cc1ccccc1)NC(=O)[C@H](CCCN)NC(=O)C(C)(C)NC(=O)[C@H](CCC(N)=O)NC(=O)[C@H](C)NC(=O)[C@H](CCCCNC(=O)CC[C@H](NC(=O)CC[C@H](NC(=O)CCCCCCCCCCCCCCCCC(=O)O)C(=O)O)C(=O)O)NC(=O)[C@H](CCCN)NC(=O)[C@H](CC(=O)O)NC(=O)[C@H](CC(C)C)NC(=O)[C@](C)(CC(C)C)NC(=O)[C@H](CCC(=O)O)NC(=O)[C@](C)(CO)NC(=O)[C@H](Cc1ccncc1)NC(=O)[C@H](CC(=O)O)NC(=O)[C@H](CO)NC(=O)[C@@H](NC(=O)[C@](C)(Cc1ccccc1F)NC(=O)[C@@H](NC(=O)CNC(=O)[C@H](CCC(N)=O)NC(=O)C(C)(C)NC(=O)[C@@H](N)Cc1ccc(O)cc1)[C@@H](C)O)[C@@H](C)O)[C@@H](C)CC)C(=O)N[C@@H](CCC(=O)O)C(=O)NCC(=O)NCC(=O)N1CCC[C@H]1C(=O)N[C@@H](CO)C(=O)N[C@@H](CO)C(=O)NCC(=O)N[C@@H](CCC(=O)O)C(=O)N1CCC[C@H]1C(=O)N1CCC[C@H]1C(=O)N1CCC[C@H]1C(=O)N[C@@H](CCC(=O)O)C(N)=O [Example 447] (H-Y[Aib]QGT[αMePhe(2-F)]TSD[4Pal][αMeS]E[αMeL]LD[Orn]K([γGlu-γGlu-C18 diacid])AQ[Aib][Orn]FI[dE][αMeY]LIEGGPSSGEPPPE-NH2)	1.81 nM	11.3 nM	1090 nM	0.0177 nM	0.214 nM	9.71 nM	–	–	–	–
H-Y[Aib]QGT[αMePhe(2-F)]TSD[4Pal][αMeS]ILLD[Orn]K([γGlu-γGlu-C18 diacid])AQ[Aib][Orn]FI[dE][αMeY]LQEGGPSSGEPPPEGAEE-NH2 [Example 574]	20.5 nM	37.2 nM	435 nM	0.235 nM	0.499 nM	5.04 nM	–	–	–	–
H-Y[Aib]QGT[αMePhe(2-F)]TSD[4Pal][αMeS]I[αMeL]LD[Orn]K([AEEA-γGlu-C18 diacid])AQ[αMe4Pal]EFI[dE][αMeY]LIEGGPSSGEPPPEGGGE-NH2 [Example 760]	1.29 nM	43.6 nM	239 nM	0.00722 nM	0.395 nM	1.59 nM	–	–	–	–
CC[C@H](C)[C@H](NC(=O)[C@H](CC(C)C)NC(=O)[C@](C)(Cc1ccc(O)cc1)NC(=O)[C@H](CCC(=O)O)NC(=O)[C@@H](NC(=O)[C@H](Cc1ccccc1)NC(=O)[C@H](CCC(N)=O)NC(=O)[C@](C)(Cc1ccncc1)NC(=O)[C@H](CCC(N)=O)NC(=O)[C@H](C)NC(=O)[C@H](CCCCNC(=O)COCCOCCNC(=O)CC[C@H](NC(=O)CCCCCCCCCCCCCCCCC(=O)O)C(=O)O)NC(=O)[C@H](CCCN)NC(=O)[C@H](CC(=O)O)NC(=O)[C@H](CC(C)C)NC(=O)[C@](C)(CC(C)C)NC(=O)[C@H](CCC(N)=O)NC(=O)[C@H](CO)NC(=O)[C@H](Cc1ccncc1)NC(=O)[C@H](CC(=O)O)NC(=O)[C@H](CO)NC(=O)[C@@H](NC(=O)[C@H](Cc1ccccc1)NC(=O)[C@@H](NC(=O)CNC(=O)[C@H](CCC(N)=O)NC(=O)C(C)(C)NC(=O)[C@@H](N)Cc1ccc(O)cc1)[C@@H](C)O)[C@@H](C)O)[C@@H](C)CC)C(=O)N[C@@H](C)C(=O)NC(C)(C)C(=O)NCC(=O)N1CCC[C@H]1C(=O)N[C@@H](CO)C(=O)N[C@@H](CO)C(=O)NCC(=O)N[C@@H](C)C(=O)N1CCC[C@H]1C(=O)N1CCC[C@H]1C(=O)N1CCC[C@H]1C(=O)N[C@@H](CO)C(=O)NCC(=O)N[C@@H](CO)C(=O)N[C@@H](CCC(=O)O)C(=O)N[C@@H](CCC(=O)O)C(N)=O [Example 1111]	3.66 nM	51.3 nM	299 nM	–	–	–	0.0356 nM	1.14 nM	5.28 nM	–
CC[C@H](C)[C@H](NC(=O)[C@H](Cc1ccccc1)NC(=O)[C@H](C)NC(=O)C(C)(C)NC(=O)[C@H](CCC(N)=O)NC(=O)[C@H](C)NC(=O)[C@H](CCCCNC(=O)CC[C@H](NC(=O)CC[C@H](NC(=O)CCCCCCCCCCCCCCCCC(=O)O)C(=O)O)C(=O)O)NC(=O)[C@H](CCCN)NC(=O)[C@H](CC(=O)O)NC(=O)[C@H](CC(C)C)NC(=O)[C@H](CC(C)C)NC(=O)[C@@H](NC(=O)[C@H](CO)NC(=O)[C@H](Cc1ccc(O)cc1)NC(=O)[C@H](CC(=O)O)NC(=O)[C@H](CO)NC(=O)[C@@H](NC(=O)[C@](C)(Cc1ccccc1F)NC(=O)[C@@H](NC(=O)CNC(=O)[C@H](CCC(N)=O)NC(=O)C(C)(C)NC(=O)[C@@H](N)Cc1ccc(O)cc1)[C@@H](C)O)[C@@H](C)O)[C@@H](C)CC)C(=O)N[C@@H](CCC(=O)O)C(=O)N[C@@H](Cc1ccc(O)cc1)C(=O)N[C@@H](CC(C)C)C(=O)N[C@@H](CCC(=O)O)C(=O)N[C@@H](CCC(=O)O)C(=O)NCC(=O)NCC(=O)N1CCC[C@H]1C(=O)N[C@@H](CO)C(=O)N[C@@H](CO)C(=O)NCC(=O)N[C@@H](C)C(=O)N1CCC[C@H]1C(=O)N1CCC[C@H]1C(=O)N1CCC[C@H]1C(=O)N[C@@H](CO)C(N)=O [Example 414] (H-Y[Aib]QGT[αMePhe(2-F)]TSDYSILLD[Orn]K([γGlu-γGlu-C18 diacid])AQ[Aib]AFIEYLEEGGPSSGAPPPS-NH2)	14.9 nM	32.8 nM	487 nM	0.0303 nM	0.176 nM	4.56 nM	–	–	–	–
H-Y[Aib]QGT[αMePhe(2-F)]TSD[4Pal]SI[αMeL]LDKK([γGlu-γGlu-C18 diacid])AQ[Aib][Orn]FIEYLTEGGPSSGEPPPEGSEE-NH2 [Example 652]	–	–	–	–	–	–	–	–	–	EC50 (hGIPR [1]; [6]): 1.92 nM; EC50 (hGLP-1R [2]; [6]): 26.8 nM; EC50 (human GcgR; [6]): 764 nM; EC50 (hGIPR [3]; [7]): 0.0342 nM; EC50 (hGLP-1R [4]; [7]): 0.426 nM; EC50 (hGcgR; [7]): 15.3 nM
H-Y[Aib]QGTFTSD[4Pal]SQ[αMeL]LDKK([γGlu-γGlu-C18 diacid])AQ[αMe4Pal]AFIEYLIE[Aib]GPSSGAPPPSGE-NH2 [Example 882]	26.6 nM	361 nM	559 nM	–	–	–	0.129 nM	2.33 nM	2.73 nM	–
Y[Aib]QGTFTSD[4Pal]SQ[αMeL]LDKK([AEEA-γGlu-C18 diacid])AQ[Aib]AFIE[αMeY]LIEGGPSSGAPPPSGS-NH2 [Example 838]	23.2 nM	72.2 nM	3070 nM	–	–	–	0.225 nM	0.379 nM	20.7 nM	–
H-Y[Aib]Q[dA]T[αMePhe(2-F)]TSD[4Pal]SI[αMeL]LD[Orn]K([AEEA-γGlu-C18 diacid])AQ[αMe4Pal]EFI[dE][αMeY]LIEGGPSSGAPPPSGS-NH2 [Example 1206]	7.04 nM	44.1 nM	251 nM	–	–	–	–	–	–	EC50 (hGIPR [3]; [8]): 0.0671 nM; EC50 (hGLP-1R [4]; [8]): 0.352 nM; EC50 (hGcgR; [8]): 1.78 nM
H-Y[Aib]QGTFTSDFSK[αMeL]LDKK([AEEA-γGlu-C20 diacid])AQ[Aib]AFIEYLLEGAPSSGAPPPSEG-NH2 [Example 47]	154 nM	1270 nM	2140 nM	–	–	–	0.388 nM	3.4 nM	5.61 nM	–
Y[Aib]QGTFTSD[4Pal]SK[αMeL]LDKK([AEEA-γGlu-C18 diacid])AQ[Aib]AFIEYLIA[Aib]GESSGEPPPSGE-NH2 [Example 286]	11.5 nM	925 nM	228 nM	–	–	–	0.0845 nM	3.45 nM	2.2 nM	–
